Source: PubChem BioAssay AID1963423 (Molecular Pharmacology Branch, DTP, NCI, 2024)
pIC50: −log10 of the molar value.

Test system: 439559-082-T-J2-PDC complex spheroid growth
Assay: Anticancer human tumor 439559-082-T-J2-PDC patient-derived colon adenocarcinoma cell line growth inhibition [Asc]
Settings: for pIC50: curve of first compound; for viability, T/C: stronger effect = lower value
How it was run: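 Tumor cells were grown as complex spheroids with human endothelial cells (HUVEC) and human mesenchymal stem cells as stroma. Agents were tested alone and in combination, in half-log steps down from the clinical Cmax, or from 10 microM where Cmax was unknown.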

[1] = second compound 0.00316 µM, first compound 0.0316 µM
[2] = second compound 0.00316 µM, first compound 0.1 µM
[3] = second compound 0.01 µM, first compound 0.0316 µM
[4] = second compound 0.01 µM, first compound 0.1 µM
[5] = second compound 0.0316 µM, first compound 0.0316 µM
[6] = second compound 0.0316 µM, first compound 0.1 µM
[7] = second compound 0.1 µM, first compound 0.0316 µM
[8] = second compound 0.1 µM, first compound 0.1 µM
[9] = second compound 0.316 µM, first compound 0.0316 µM
[10] = second compound 0.316 µM, first compound 0.1 µM
[11] = second compound 1 µM, first compound 0.0316 µM
[12] = second compound 1 µM, first compound 0.1 µM
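Further: spheroids exposed to agents for 7 days starting day 3 after seeding.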
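Wherever viability, T/C is given: percent of DMSO vehicle control viability with 100% = vehicle.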

C#Cc1c(F)ccc2cc(O)cc(-c3ncc4c(N5CC6CCC(C5)N6)nc(OCC56CCCN5CC(F)C6)nc4c3F)c12 (centres undefined) + CNC(C)C(=O)NC1CN(S(=O)(=O)c2cccc(S(=O)(=O)N3CCC4CCC(C(=O)NC(c5ccccc5)c5ccccc5)N4C(=O)C(NC(=O)C(C)NC)C3)c2)CCC2CCC(C(=O)NC(c3ccccc3)c3ccccc3)N2C1=O
pIC50 (second compound 0.00316 µM): 5.70
pIC50 (second compound 0.01 µM): 5.58
pIC50 (second compound 0.0316 µM): 5.78
pIC50 (second compound 0.1 µM): 5.72
pIC50 (second compound 0.316 µM): 5.99
pIC50 (second compound 1 µM): 6.57
viability, T/C [1]: 103%
viability, T/C [2]: 76.9%
viability, T/C (second compound 0.00316 µM, first compound 0.316 µM): 66.3%
viability, T/C (second compound 0.00316 µM, first compound 1 µM): 58.9%
viability, T/C (second compound 0.00316 µM, first compound 3.16 µM): 46.9%
viability, T/C (second compound 0.00316 µM, first compound 10 µM): 38.9%
viability, T/C [3]: 104%
viability, T/C [4]: 82%
viability, T/C (second compound 0.01 µM, first compound 0.316 µM): 66.1%
viability, T/C (second compound 0.01 µM, first compound 1 µM): 62.9%
viability, T/C (second compound 0.01 µM, first compound 3.16 µM): 48.5%
viability, T/C (second compound 0.01 µM, first compound 10 µM): 39.8%
viability, T/C [5]: 95%
viability, T/C [6]: 94.3%
viability, T/C (second compound 0.0316 µM, first compound 0.316 µM): 66.8%
viability, T/C (second compound 0.0316 µM, first compound 1 µM): 54.9%
viability, T/C (second compound 0.0316 µM, first compound 3.16 µM): 50%
viability, T/C (second compound 0.0316 µM, first compound 10 µM): 37.5%
viability, T/C [7]: 91.8%
viability, T/C [8]: 73.8%
viability, T/C (second compound 0.1 µM, first compound 0.316 µM): 65.8%
viability, T/C (second compound 0.1 µM, first compound 1 µM): 60.1%
viability, T/C (second compound 0.1 µM, first compound 3.16 µM): 45.3%
viability, T/C (second compound 0.1 µM, first compound 10 µM): 34.3%
viability, T/C [9]: 84.7%
viability, T/C [10]: 78.5%
viability, T/C (second compound 0.316 µM, first compound 0.316 µM): 59.4%
viability, T/C (second compound 0.316 µM, first compound 1 µM): 51.4%
viability, T/C (second compound 0.316 µM, first compound 3.16 µM): 40%
viability, T/C (second compound 0.316 µM, first compound 10 µM): 30.1%
viability, T/C [11]: 66%
viability, T/C [12]: 55.2%
viability, T/C (second compound 1 µM, first compound 0.316 µM): 50.7%
viability, T/C (second compound 1 µM, first compound 1 µM): 40%
viability, T/C (second compound 1 µM, first compound 3.16 µM): 29%
viability, T/C (second compound 1 µM, first compound 10 µM): 21.6%

CCN1C(C(=O)NC23CCC(C(=O)O)(CC2)CC3)C(c2cccc(Cl)c2F)C2(C(=O)Nc3cc(Cl)ccc32)C12CCCCC2 (centres undefined) + Cc1c(S(C)(=O)=O)c(-c2cc(F)cc(N3CCN(c4ccc(NS(=O)(=O)c5ccc(NC(CCN6CCC(C(=O)OCCCP(=O)(O)O)CC6)CSc6ccccc6)c(S(=O)(=O)C(F)(F)F)c5)cc4)CC3)c2)c(-c2ccc(Cl)cc2)n1C(C)C
pIC50 (second compound 0.1 µM): < 5.52
pIC50 (second compound 0.316 µM): < 5.52
pIC50 (second compound 1 µM): < 5.52
pIC50 (second compound 3.16 µM): < 5.52
pIC50 (second compound 10 µM): < 5.52
viability, T/C (second compound 0.1 µM, first compound 0.00949 µM): 96.8%
viability, T/C (second compound 0.1 µM, first compound 0.03 µM): 104%
viability, T/C (second compound 0.1 µM, first compound 0.0949 µM): 102%
viability, T/C (second compound 0.1 µM, first compound 0.3 µM): 98.6%
viability, T/C (second compound 0.1 µM, first compound 0.949 µM): 95.4%
viability, T/C (second compound 0.1 µM, first compound 3 µM): 93.1%
viability, T/C (second compound 0.316 µM, first compound 0.00949 µM): 103%
viability, T/C (second compound 0.316 µM, first compound 0.03 µM): 104%
viability, T/C (second compound 0.316 µM, first compound 0.0949 µM): 102%
viability, T/C (second compound 0.316 µM, first compound 0.3 µM): 87.8%
viability, T/C (second compound 0.316 µM, first compound 0.949 µM): 97.9%
viability, T/C (second compound 0.316 µM, first compound 3 µM): 86.2%
viability, T/C (second compound 1 µM, first compound 0.00949 µM): 90.8%
viability, T/C (second compound 1 µM, first compound 0.03 µM): 97%
viability, T/C (second compound 1 µM, first compound 0.0949 µM): 99.7%
viability, T/C (second compound 1 µM, first compound 0.3 µM): 84.5%
viability, T/C (second compound 1 µM, first compound 0.949 µM): 88.5%
viability, T/C (second compound 1 µM, first compound 3 µM): 79.3%
viability, T/C (second compound 3.16 µM, first compound 0.00949 µM): 81.5%
viability, T/C (second compound 3.16 µM, first compound 0.03 µM): 92%
viability, T/C (second compound 3.16 µM, first compound 0.0949 µM): 91.4%
viability, T/C (second compound 3.16 µM, first compound 0.3 µM): 89%
viability, T/C (second compound 3.16 µM, first compound 0.949 µM): 82%
viability, T/C (second compound 3.16 µM, first compound 3 µM): 67.8%
viability, T/C (second compound 10 µM, first compound 0.00949 µM): 69.9%
viability, T/C (second compound 10 µM, first compound 0.03 µM): 77.7%
viability, T/C (second compound 10 µM, first compound 0.0949 µM): 74.3%
viability, T/C (second compound 10 µM, first compound 0.3 µM): 69.5%
viability, T/C (second compound 10 µM, first compound 0.949 µM): 74.1%
viability, T/C (second compound 10 µM, first compound 3 µM): 57.3%

Cn1ncnc1[C@H]1c2n[nH]c(=O)c3cc(F)cc(c23)N[C@@H]1c1ccc(F)cc1 + CNC(C)C(=O)NC1CN(S(=O)(=O)c2cccc(S(=O)(=O)N3CCC4CCC(C(=O)NC(c5ccccc5)c5ccccc5)N4C(=O)C(NC(=O)C(C)NC)C3)c2)CCC2CCC(C(=O)NC(c3ccccc3)c3ccccc3)N2C1=O
pIC50 (second compound 0.00316 µM): > 9.50
pIC50 (second compound 0.01 µM): < 7.00
pIC50 (second compound 0.0316 µM): < 7.00
pIC50 (second compound 0.1 µM): < 7.00
pIC50 (second compound 0.316 µM): < 7.00
pIC50 (second compound 1 µM): < 7.00
viability, T/C (second compound 0.00316 µM, first compound 0.000316 µM): 46.7%
viability, T/C (second compound 0.00316 µM, first compound 0.001 µM): 41.6%
viability, T/C (second compound 0.00316 µM, first compound 0.00316 µM): 38.5%
viability, T/C (second compound 0.00316 µM, first compound 0.01 µM): 46.7%
viability, T/C [1]: 56.8%
viability, T/C [2]: 45%
viability, T/C (second compound 0.01 µM, first compound 0.000316 µM): 101%
viability, T/C (second compound 0.01 µM, first compound 0.001 µM): 101%
viability, T/C (second compound 0.01 µM, first compound 0.00316 µM): 105%
viability, T/C (second compound 0.01 µM, first compound 0.01 µM): 89%
viability, T/C [3]: 95.2%
viability, T/C [4]: 89.1%
viability, T/C (second compound 0.0316 µM, first compound 0.000316 µM): 102%
viability, T/C (second compound 0.0316 µM, first compound 0.001 µM): 94.8%
viability, T/C (second compound 0.0316 µM, first compound 0.00316 µM): 101%
viability, T/C (second compound 0.0316 µM, first compound 0.01 µM): 88.9%
viability, T/C [5]: 104%
viability, T/C [6]: 104%
viability, T/C (second compound 0.1 µM, first compound 0.000316 µM): 93.4%
viability, T/C (second compound 0.1 µM, first compound 0.001 µM): 101%
viability, T/C (second compound 0.1 µM, first compound 0.00316 µM): 97.2%
viability, T/C (second compound 0.1 µM, first compound 0.01 µM): 92.4%
viability, T/C [7]: 103%
viability, T/C [8]: 104%
viability, T/C (second compound 0.316 µM, first compound 0.000316 µM): 99.8%
viability, T/C (second compound 0.316 µM, first compound 0.001 µM): 93.5%
viability, T/C (second compound 0.316 µM, first compound 0.00316 µM): 93.1%
viability, T/C (second compound 0.316 µM, first compound 0.01 µM): 88.1%
viability, T/C [9]: 97%
viability, T/C [10]: 99.7%
viability, T/C (second compound 1 µM, first compound 0.000316 µM): 74.5%
viability, T/C (second compound 1 µM, first compound 0.001 µM): 72.2%
viability, T/C (second compound 1 µM, first compound 0.00316 µM): 79.5%
viability, T/C (second compound 1 µM, first compound 0.01 µM): 80.8%
viability, T/C [11]: 87%
viability, T/C [12]: 81.6%
